According to patent US6914045B2, “Glycopeptide antibiotics” (Wyeth Holdings Corporation, priority 2001, dated 2005):
Converted amounts (≈) assume the structure as drawn. Each block holds one compound with its values, some of them ahead of it.

Tests used:
Assay in all cases: in vitro antibacterial evaluation, MIC by broth dilution
Type in all cases: cell-based
[1] = test system: Enterococcus sp.; conditions: broth dilution, 18 hours at 35° C.
Method: (§1) Methods for in vitro Antibacterial Evaluation (Table 1)
(§2) The minimum inhibitory concentration (MIC), the lowest concentration of the antibiotic which inhibits growth of the test organism, is determined by the broth dilution method using Muller-Hinton II […] (Baltimore Biological Laboratories) following the recommendations of the National Committee for Clinical Laboratory Standards [Methods for dilution antimicrobial susceptibility tests for bacteria that grow aerobically, approved standard M7-A2, National Committee for Clinical Laboratory Standards, Villanova, Pa.].
(§3) An inoculum level of 5×10^5 CFU/mL, and a range of antibiotic concentrations (64-0.06 μg/mL) is used. […] The test organisms include a spectrum of Gram-positive bacteria comprised of Staphylococcus sp., Streptococcus sp. and Enterococcus sp. These organisms include recent clinical isolates that are resistant to methicillin, penicillin and/or vancomycin.

[2] = test system: Streptococcus sp.; conditions: broth dilution, 18 hours at 35° C.
Method: as §1, §2, §3

[3] = test system: Staphylococcus sp.; conditions: broth dilution, 18 hours at 35° C.; for MIC Staphylococcus aureus (GC 1131): strain GC 1131; for MIC Staphylococcus aureus (ATCC 29213): strain ATCC 29213; for MIC Staphylococcus aureus (GC 3051): strain GC 3051; for MIC Staphylococcus aureus (GC 3053): strain GC 3053; for MIC Staphylococcus aureus (GC 4541): strain GC 4541; for MIC Staphylococcus aureus (GC 4542): strain GC 4542; for MIC Staphylococcus aureus-SMITH (GC 4543): strain GC 4543; for MIC Staphylococcus aureus (GC 4544): strain GC 4544; for MIC Staphylococcus aureus (GC 4545): strain GC 4545; for MIC Staphylococcus haemolyticus (GC 4546): strain GC 4546; for MIC Coagulase Negative Staphylococcus (GC 4547): strain GC 4547; for MIC Coagulase Negative Staphylococcus (GC 4548): strain GC 4548; for MIC Coagulase Negative Staphylococcus (GC 4549): strain GC 4549; for MIC Coagulase Negative Staphylococcus (GC 4551): strain GC 4551
Method: as §1, §2, §3

[4] = test system: Escherichia coli; conditions: 18 hours at 35° C.
[5] = inoculum 5×10^5 CFU/mL, strain ATCC 29212
[6] = inoculum 5×10^5 CFU/mL, strain GC 2242
[7] = inoculum 5×10^5 CFU/mL, strain GC 2243
[8] = inoculum 5×10^5 CFU/mL, strain GC 2691
[9] = inoculum 5×10^5 CFU/mL, strain GC 3059
[10] = inoculum 5×10^5 CFU/mL, strain GC 4552
[11] = inoculum 5×10^5 CFU/mL, strain GC 4553
[12] = inoculum 5×10^5 CFU/mL, strain GC 4554
[13] = inoculum 5×10^5 CFU/mL, strain GC 4556
[14] = inoculum 5×10^5 CFU/mL, strain GC 4557
[15] = inoculum 5×10^5 CFU/mL, strain GC 4558
[16] = inoculum 5×10^5 CFU/mL, strain GC 6189
[17] = inoculum 5×10^5 CFU/mL, strain ATCC 6301
[18] = inoculum 5×10^5 CFU/mL, strain GC 1894
[19] = inoculum 5×10^5 CFU/mL, strain GC 4563
[20] = inoculum 5×10^5 CFU/mL, strain GC 4564
[21] = inoculum 5×10^5 CFU/mL, strain GC 4565

MIC Enterococcus avium (GC 4558) [1]: 32 µg/mL (≈ 20.7 µM)
MIC Enterococcus faecalis (ATCC 29212) [1]: 32 µg/mL (≈ 20.7 µM)
MIC Enterococcus faecalis (GC 2242) [1]: 32 µg/mL (≈ 20.7 µM)
MIC Enterococcus faecalis (GC 2691) [1]: 32 µg/mL (≈ 20.7 µM)
MIC Enterococcus faecalis (GC 3059) [1]: 32 µg/mL (≈ 20.7 µM)
MIC Enterococcus faecalis (GC 4552) [1]: 32 µg/mL (≈ 20.7 µM)
MIC Enterococcus faecalis (GC 4553) [1]: 16 µg/mL (≈ 10.4 µM)
MIC Enterococcus faecalis (GC 4554) [1]: 32 µg/mL (≈ 20.7 µM)
MIC Enterococcus faecalis (GC 6189) [1]: 32 µg/mL (≈ 20.7 µM)
MIC Enterococcus faecium (GC 2243) [1]: 16 µg/mL (≈ 10.4 µM)
MIC Enterococcus faecium (GC 4556) [1]: 32 µg/mL (≈ 20.7 µM)
MIC Enterococcus faecium (GC 4557) [1]: 32 µg/mL (≈ 20.7 µM)
MIC Enterococcus faecalis (ATCC 29212) [1, 5]: 32 µg/mL (≈ 20.7 µM)
MIC Enterococcus faecalis (GC 2242) [1, 6]: 32 µg/mL (≈ 20.7 µM)
MIC Enterococcus faecium (GC 2243) [1, 7]: 16 µg/mL (≈ 10.4 µM)
MIC Enterococcus faecalis (GC 2691) [1, 8]: 32 µg/mL (≈ 20.7 µM)
MIC Enterococcus faecalis (GC 3059) [1, 9]: 32 µg/mL (≈ 20.7 µM)
MIC Enterococcus faecalis (GC 4552) [1, 10]: 32 µg/mL (≈ 20.7 µM)
MIC Enterococcus faecalis (GC 4553) [1, 11]: 16 µg/mL (≈ 10.4 µM)
MIC Enterococcus faecalis (GC 4554) [1, 12]: 32 µg/mL (≈ 20.7 µM)
MIC Enterococcus faecium (GC 4556) [1, 13]: 32 µg/mL (≈ 20.7 µM)
MIC Enterococcus faecium (GC 4557) [1, 14]: 32 µg/mL (≈ 20.7 µM)
MIC Enterococcus avium (GC 4558) [1, 15]: 32 µg/mL (≈ 20.7 µM)
MIC Enterococcus faecalis (GC 6189) [1, 16]: 32 µg/mL (≈ 20.7 µM)
MIC Streptococcus agalactiae (GC 4564) [2]: 0.12 µg/mL (≈ 0.0777 µM)
MIC Streptococcus pneumoniae (ATCC 6301) [2]: <0.06 µg/mL
MIC Streptococcus pneumoniae (GC 1894) [2]: <0.06 µg/mL
MIC Streptococcus pneumoniae (GC 4565) [2]: <0.06 µg/mL
MIC Streptococcus pyogenes (GC 4563) [2]: 0.25 µg/mL (≈ 0.162 µM)
MIC Streptococcus pneumoniae (ATCC 6301) [2, 17]: <0.06 µg/mL
MIC Streptococcus pneumoniae (GC 1894) [2, 18]: <0.06 µg/mL
MIC Streptococcus pyogenes (GC 4563) [2, 19]: 0.25 µg/mL (≈ 0.162 µM)
MIC Streptococcus agalactiae (GC 4564) [2, 20]: 0.12 µg/mL (≈ 0.0777 µM)
MIC Streptococcus pneumoniae (GC 4565) [2, 21]: <0.06 µg/mL
MIC Staphylococcus aureus (GC 1131) ([3]; inoculum 5×10^5 CFU/mL): 32 µg/mL (≈ 20.7 µM)
MIC Staphylococcus aureus (ATCC 29213) [3]: 32 µg/mL (≈ 20.7 µM)
MIC Staphylococcus aureus (GC 1131) [3]: 32 µg/mL (≈ 20.7 µM)
MIC Staphylococcus aureus (GC 3051) [3]: 32 µg/mL (≈ 20.7 µM)
MIC Staphylococcus aureus (GC 3053) [3]: 32 µg/mL (≈ 20.7 µM)
MIC Staphylococcus aureus (GC 4541) [3]: 32 µg/mL (≈ 20.7 µM)
MIC Staphylococcus aureus (GC 4542) [3]: 32 µg/mL (≈ 20.7 µM)
MIC Staphylococcus aureus-SMITH (GC 4543) [3]: 32 µg/mL (≈ 20.7 µM)
MIC Staphylococcus aureus (GC 4544) [3]: 32 µg/mL (≈ 20.7 µM)
MIC Staphylococcus aureus (GC 4545) [3]: 32 µg/mL (≈ 20.7 µM)
MIC Coagulase Negative Staphylococcus (GC 4547) [3]: 32 µg/mL (≈ 20.7 µM)
MIC Coagulase Negative Staphylococcus (GC 4548) [3]: 16 µg/mL (≈ 10.4 µM)
MIC Coagulase Negative Staphylococcus (GC 4549) [3]: 32 µg/mL (≈ 20.7 µM)
MIC Coagulase Negative Staphylococcus (GC 4551) [3]: 32 µg/mL (≈ 20.7 µM)
MIC Coagulase Negative Staphylococcus (GC 6257) ([3]; strain GC 6257): 16 µg/mL (≈ 10.4 µM)
MIC Escherichia coli (ATCC 25922) [4]: >64 µg/mL
MIC Escherichia coli (GC 4559) [4]: >64 µg/mL
MIC Escherichia coli (GC 4560) [4]: 32 µg/mL (≈ 20.7 µM)
SMILES: CC(c1ccccc1)C1NC(=O)CNC(=O)C(CO)NC(=O)C(C(O)C2CNC(=N)N2C2OC(CO)C(O)C(O)C2O)NC(=O)C(C(O)C2CNC(=N)N2)NC(=O)C(Cc2ccc(OC3OC(CO)C(OC4OC5COC(c6cccc(Oc7cccc(C(F)(F)F)c7)c6)OC5C(O)C4O)C(O)C3O)cc2)NC1=O (stereo not drawn) [Example 184]
MIC Staphylococcus haemolyticus (GC 4546) [3]: 32 µg/mL (≈ 20.7 µM)

MIC Enterococcus avium (GC 4558) [1]: 4 µg/mL (≈ 2.85 µM)
MIC Enterococcus faecalis (ATCC 29212) [1]: 2 µg/mL (≈ 1.43 µM)
MIC Enterococcus faecalis (GC 2242) [1]: 4 µg/mL (≈ 2.85 µM)
MIC Enterococcus faecalis (GC 2691) [1]: 4 µg/mL (≈ 2.85 µM)
MIC Enterococcus faecalis (GC 3059) [1]: 2 µg/mL (≈ 1.43 µM)
MIC Enterococcus faecalis (GC 4552) [1]: 4 µg/mL (≈ 2.85 µM)
MIC Enterococcus faecalis (GC 4553) [1]: 2 µg/mL (≈ 1.43 µM)
MIC Enterococcus faecalis (GC 4554) [1]: 4 µg/mL (≈ 2.85 µM)
MIC Enterococcus faecalis (GC 6189) [1]: 2 µg/mL (≈ 1.43 µM)
MIC Enterococcus faecium (GC 2243) [1]: 2 µg/mL (≈ 1.43 µM)
MIC Enterococcus faecium (GC 4556) [1]: 2 µg/mL (≈ 1.43 µM)
MIC Enterococcus faecium (GC 4557) [1]: 4 µg/mL (≈ 2.85 µM)
MIC Enterococcus faecalis (ATCC 29212) [1, 5]: 2 µg/mL (≈ 1.43 µM)
MIC Enterococcus faecalis (GC 2242) [1, 6]: 4 µg/mL (≈ 2.85 µM)
MIC Enterococcus faecium (GC 2243) [1, 7]: 2 µg/mL (≈ 1.43 µM)
MIC Enterococcus faecalis (GC 2691) [1, 8]: 4 µg/mL (≈ 2.85 µM)
MIC Enterococcus faecalis (GC 3059) [1, 9]: 2 µg/mL (≈ 1.43 µM)
MIC Enterococcus faecalis (GC 4552) [1, 10]: 4 µg/mL (≈ 2.85 µM)
MIC Enterococcus faecalis (GC 4553) [1, 11]: 2 µg/mL (≈ 1.43 µM)
MIC Enterococcus faecalis (GC 4554) [1, 12]: 4 µg/mL (≈ 2.85 µM)
MIC Enterococcus faecium (GC 4556) [1, 13]: 2 µg/mL (≈ 1.43 µM)
MIC Enterococcus faecium (GC 4557) [1, 14]: 4 µg/mL (≈ 2.85 µM)
MIC Enterococcus avium (GC 4558) [1, 15]: 4 µg/mL (≈ 2.85 µM)
MIC Enterococcus faecalis (GC 6189) [1, 16]: 2 µg/mL (≈ 1.43 µM)
MIC Streptococcus agalactiae (GC 4564) [2]: <0.12 µg/mL
MIC Streptococcus pneumoniae (ATCC 6301) [2]: <0.12 µg/mL
MIC Streptococcus pneumoniae (GC 1894) [2]: <0.12 µg/mL
MIC Streptococcus pneumoniae (GC 4565) [2]: <0.12 µg/mL
MIC Streptococcus pyogenes (GC 4563) [2]: <0.12 µg/mL
MIC Streptococcus pneumoniae (ATCC 6301) [2, 17]: <0.12 µg/mL
MIC Streptococcus pneumoniae (GC 1894) [2, 18]: <0.12 µg/mL
MIC Streptococcus pyogenes (GC 4563) [2, 19]: <0.12 µg/mL
MIC Streptococcus agalactiae (GC 4564) [2, 20]: <0.12 µg/mL
MIC Streptococcus pneumoniae (GC 4565) [2, 21]: <0.12 µg/mL
MIC Staphylococcus aureus (GC 1131) ([3]; inoculum 5×10^5 CFU/mL): 2 µg/mL (≈ 1.43 µM)
MIC Staphylococcus aureus (ATCC 29213) [3]: 2 µg/mL (≈ 1.43 µM)
MIC Staphylococcus aureus (GC 1131) [3]: 2 µg/mL (≈ 1.43 µM)
MIC Staphylococcus aureus (GC 3051) [3]: 2 µg/mL (≈ 1.43 µM)
MIC Staphylococcus aureus (GC 3053) [3]: 2 µg/mL (≈ 1.43 µM)
MIC Staphylococcus aureus (GC 4541) [3]: 2 µg/mL (≈ 1.43 µM)
MIC Staphylococcus aureus (GC 4542) [3]: 2 µg/mL (≈ 1.43 µM)
MIC Staphylococcus aureus-SMITH (GC 4543) [3]: 2 µg/mL (≈ 1.43 µM)
MIC Staphylococcus aureus (GC 4544) [3]: 2 µg/mL (≈ 1.43 µM)
MIC Staphylococcus aureus (GC 4545) [3]: 2 µg/mL (≈ 1.43 µM)
MIC Coagulase Negative Staphylococcus (GC 4547) [3]: 2 µg/mL (≈ 1.43 µM)
MIC Coagulase Negative Staphylococcus (GC 4548) [3]: 1 µg/mL (≈ 0.713 µM)
MIC Coagulase Negative Staphylococcus (GC 4549) [3]: 1 µg/mL (≈ 0.713 µM)
MIC Coagulase Negative Staphylococcus (GC 4551) [3]: 2 µg/mL (≈ 1.43 µM)
MIC Escherichia coli (ATCC 25922) [4]: 64 µg/mL (≈ 45.6 µM)
MIC Escherichia coli (GC 4559) [4]: 128 µg/mL (≈ 91.2 µM)
MIC Escherichia coli (GC 4560) [4]: 1 µg/mL (≈ 0.713 µM)
SMILES: CC(c1ccccc1)C1NC(=O)CNC(=O)C(CO)NC(=O)C(C(O)C2CNC(=N)N2C2OC(CO)C(O)C(O)C2O)NC(=O)C(C(O)C2CNC(=N)N2)NC(=O)C(Cc2ccc(OC3OC(CO)C(OC4OC5COC6(CCCCC6(C)C)OC5C(O)C4O)C(O)C3O)cc2)NC1=O (stereo not drawn) [Example 205]
MIC Staphylococcus haemolyticus (GC 4546) [3]: 2 µg/mL (≈ 1.43 µM)
